Assay results published in US4783528A, “Steroidal lariat ethers” (University of Miami (Department of Chemistry), priority 1987, dated 1988).

Experiments:
[1] = Cation binding constant (log KS) for Na+ in anhydrous methanol at 25° C.; details: decadic (log10) logarithm of equilibrium constant lariat ether + cation = complex
Description: (§1) As a result, only the macroring itself is expected to provide cation binding sites.
(§2) ^a Binding constants determined in anhydrous methanol solution at
(§3) 25° C. as described in the articles by Dishong et al., and Schultz
(§4) Notes. a. Binding constants determined in anhydrous methanol solution at 25° C. as described in the articles by Dishong et al., and Schultz et al. referred to above.
(§5) The binding constant, usually referred to as KS, is the equilibrium constant for the reaction: lariat ether + cation .revreaction. complex. The values in the table are expressed as decadic (log10) logarithms.

[2] = Cation binding constant (log KS) for K+ in anhydrous methanol at 25° C.; details: decadic (log10) logarithm of equilibrium constant lariat ether + cation = complex
Description: as §1, §2, §3, §4, §5

Molecule	Cation Binding Constants (log KS), Na^+ [1]	Cation Binding Constants (log KS), K^+ [2]
Cholestanyl (4-aza-18-crown-6)acetate [Compound 7]	4.58	5.78
CC(C)CCC[C@@H](C)[C@H]1CC[C@H]2[C@@H]3CC=C4C[C@@H](OC(=O)N5CCOCCOCCOCCOCCOCC5)CC[C@]4(C)[C@H]3CC[C@]12C [Compound 9, N-(Cholesteryloxycarbonyl)aza-18-crown-6]	2.07	1.78
CC(C)CCC[C@@H](C)[C@H]1CC[C@H]2[C@@H]3CC=C4C[C@@H](OC(=O)CN5CCOCCOCCOCCOCCOCC5)CC[C@]4(C)[C@H]3CC[C@]12C [Compound 5, Cholesteryl (4-aza-18-crown-6) acetate]	4.56	5.75
CC(C)CCC[C@@H](C)[C@H]1CC[C@H]2[C@@H]3CC[C@H]4C[C@@H](OC(=O)CN5CCOCCOCCOCCOCC5)CC[C@]4(C)[C@H]3CC[C@]12C [Compound 6, Cholestanyl (4-aza-15-crown-5) acetate]	4.12	4.03
CC(C)CCC[C@@H](C)[C@H]1CC[C@H]2[C@@H]3CC=C4C[C@@H](OC(=O)N5CCOCCOCCOCCOCC5)CC[C@]4(C)[C@H]3CC[C@]12C [Compound 8, N-(Cholesteryloxycarbonyl)aza-15-crown-5]	< 1.5	< 1.5
CC(C)CCC[C@@H](C)[C@H]1CC[C@H]2[C@@H]3CC=C4C[C@@H](OC(=O)CN5CCOCCOCCOCCOCC5)CC[C@]4(C)[C@H]3CC[C@]12C [Compound 4, Cholesteryl (4-aza-15-crown-5)acetate]	4.10	4.03
